Source: article PMC7883289, “Synthesis of Paeonol-Ozagrel Conjugate: Structure Characterization and In Vivo Anti-Ischemic Stroke potential” (Frontiers in Pharmacology, 2021)

Columns and labels:
TXA2 = assay: ELISA assay for TXA2 in brain tissue and blood of MCAO rats; format: in vivo; conditions: paeonol and OS 3 mg/kg, POC 4.5 mg/kg iv, n = 6
Description: Male Sprague Dawley (SD) rats weighing among 220 g-230 g (Anhui Medicine University, Hefei, China; certificate number: SCXK20190,003) were housed under ad libitum access to food and water with a standardized light-dark cycle condition (25 ± 2°C, 12-hour light/dark cycle). All the experimental protocols were performed in accordance with the Institutional Animal Care and Use Committee of Anhui University of Chinese Medicine (Animal ethics number: AHUCM-rats-2019001). We used the minimal number of study animals (n = 6 rats in each group for different experiments). The rats were fastened upon the operating table in a supine position after being anesthetized with 2% pelltobarbitalum natricum (50 mg/kg). After disinfection of the skin within close proximity of the operative region, the right common carotid artery (CCA), external carotid artery (ECA) and internal carotid artery (ICA) were exposed with blunt dissection. The CCA was temporarily ligated and the ECA were permanently ligated ([Liu et al., 2016]). […] According to the manufacturer's instructions, the levels of inflammatory cytokines (IL - 6, IL-1β, TNF-α; R&D Systems, Minneapolis, MN, United States) and TXA2 (Wuhan ColorfulGene Biological Technology Co., LTD) were detected using the commercial ELISA kits. The resultant colored products were measured the absorbance at 450 nm. […]

SOD and MDA = assay: Oxidative stress biomarker assay (SOD, MDA) in brain tissue of MCAO rats; format: in vivo; conditions: whole brain homogenate, POC 4.5 mg/kg iv compared with the paeonol and OS groups (3 mg/kg iv), n = 6
Description: Male Sprague Dawley (SD) rats weighing among 220 g–230 g (Anhui Medicine University, Hefei, China; certificate number: SCXK20190,003) were housed under ad libitum access to food and water with a standardized light-dark cycle condition (25 ± 2°C, 12–hour light/dark cycle). All the experimental protocols were performed in accordance with the Institutional Animal Care and Use Committee of Anhui University of Chinese Medicine (Animal ethics number: AHUCM–rats–2019001). We used the minimal number of study animals (n = 6 rats in each group for different experiments). The rats were fastened upon the operating table in a supine position after being anesthetized with 2% pelltobarbitalum natricum (50 mg/kg). After disinfection of the skin within close proximity of the operative region, the right common carotid artery (CCA), external carotid artery (ECA) and internal carotid artery (ICA) were exposed with blunt dissection. The CCA was temporarily ligated and the ECA were permanently ligated ([Liu et al., 2016]). A nylon monofilament surgical thread was introduced into the ICA to block the MCA when the blunted distal end met resistance. After 2 h of occlusion, reperfusion was accomplished to restore blood supply to the MCA area by removing the filament ([Li et al., 2009]; [Zhai et al., 2017]). […] A microplate reader was used to measure the absorbance at 450 and 532 nm with a UV spectrophotometer. […]

With `COc1ccc(C(C)=O)c(OC(=O)C=Cc2ccc(Cn3ccnc3)cc2)c1` [POC, paeonol-ozagrel conjugate] the “levels of TXA2 in blood (plasma)” value (TXA2; blood/plasma) was “decreasing levels”, the “levels of TXA2 in brain” value (TXA2; brain tissue) was “decreasing levels” and the “MDA levels in brain tissue” value (SOD and MDA) was “lowest MDA levels”. For the same compound, the “SOD levels in brain tissue” value (SOD and MDA) was “highest SOD levels”.
